Test results taken from PMC3191538 (Bioorganic & medicinal chemistry, 2011).
Where “and” joins values, the source holds several entries; their conditions need not be identical. Equal values may be shown once.

Columns and labels:
[1] = test system: Norwalk virus (NV) replicon in HG23 cells; experiment: Antiviral effect in NV replicon-harboring cells; format: cell-based; conditions: discussion of Table 1
HG23 cells = experiment: Cytotoxic effects on HG23 cells; format: cell-based; conditions: median toxic dose at 48 hr of treatment, 0-320 μM
[2] = test system: Norwalk virus 3C protease; conditions: unpublished data; cited from earlier work

Row | Compound | anti-norovirus activity (in words) [1] | TD50 (HG23 cells) | inhibition of Norwalk virus 3C protease (in words) [2]
1 | O=C(O)CN1CCN(Cc2cccc(Oc3ccccc3)c2)S1(=O)=O [Compound 14a, [5-(3-Phenoxybenzyl)-1,1-dioxido-1,2,5-thiadiazolidin-2-yl]acetic acid] | active | – | –
2 | O=S1(=O)NCCN1CC1CCCN(Cc2ccccc2)C1 (stereo not shown) [Compound 12, 1-Benzyl-3-[(1,1-dioxido-1,2,5-thiadiazolidin-2-yl)methyl]piperidine] | devoid of anti-norovirus activity | – | –
3 | O=S1(=O)N(CCN2CCOCC2)CCN1Cc1cccc(Oc2ccccc2)c1 [Compound 17a, 4-{2-[5-(3-Phenoxybenzyl)-1,1-dioxido-1,2,5-thiadiazolidin-2-yl]ethyl}morpholine] | – | 51 ± 3.2 µM and 49 ± 7.7 µM | –
4 | O=S1(=O)NCCN1Cc1cccc(Oc2ccccc2)c1 [Compound 2a, 2-(3-Phenoxybenzyl)-1,2,5-thiadiazolidine 1,1-dioxide] | – | 50 ± 9.2 µM | does not arise from the inhibition of Norwalk virus 3C protease
5 | O=C(O)CCCCN1CCN(Cc2cccc(Oc3ccccc3)c2)S1(=O)=O [Compound 14d, 5-[5-(3-Phenoxybenzyl)-1,1-dioxido-1,2,5-thiadiazolidin-2-yl]pentanoic acid] | active | – | –
6 | NC(=O)CN1CCN(Cc2cccc(Oc3ccccc3)c2)S1(=O)=O [Compound 13m, 2-[5-(3-Phenoxybenzyl)-1,1-dioxido-1,2,5-thiadiazolidin-2-yl]acetamide] | lacked activity | – | –
